Laboratory results: publication PMC11078216, “Discovery of potent and selective activity-based probes (ABPs) for the deubiquitinating enzyme USP30” (RSC Chemical Biology, 2024)

What was measured:
UCHL1 = biological target: T1, UCHL1 (Homo sapiens, UniProt P09936); test: Cross-screening against unrelated DUB UCHL1; type: biochemical; settings: Table S1, ESI
T1 sequence (P09936 1-223): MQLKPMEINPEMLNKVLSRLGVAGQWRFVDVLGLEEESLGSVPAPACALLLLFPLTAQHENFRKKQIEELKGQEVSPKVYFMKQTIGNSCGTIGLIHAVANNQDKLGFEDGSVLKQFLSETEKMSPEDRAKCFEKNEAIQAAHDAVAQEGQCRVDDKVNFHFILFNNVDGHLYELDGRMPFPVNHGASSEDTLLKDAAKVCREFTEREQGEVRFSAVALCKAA

RTN1 = biological target: T2, RTN1 (Homo sapiens, UniProt Q16799); test: ABPP chemical proteomics (LC-MS/MS) in HEK293T cells; type: cell-based
T2 construct: endogenous in cells; host or cells: HEK293T
T2 sequence (Q16799 1-776): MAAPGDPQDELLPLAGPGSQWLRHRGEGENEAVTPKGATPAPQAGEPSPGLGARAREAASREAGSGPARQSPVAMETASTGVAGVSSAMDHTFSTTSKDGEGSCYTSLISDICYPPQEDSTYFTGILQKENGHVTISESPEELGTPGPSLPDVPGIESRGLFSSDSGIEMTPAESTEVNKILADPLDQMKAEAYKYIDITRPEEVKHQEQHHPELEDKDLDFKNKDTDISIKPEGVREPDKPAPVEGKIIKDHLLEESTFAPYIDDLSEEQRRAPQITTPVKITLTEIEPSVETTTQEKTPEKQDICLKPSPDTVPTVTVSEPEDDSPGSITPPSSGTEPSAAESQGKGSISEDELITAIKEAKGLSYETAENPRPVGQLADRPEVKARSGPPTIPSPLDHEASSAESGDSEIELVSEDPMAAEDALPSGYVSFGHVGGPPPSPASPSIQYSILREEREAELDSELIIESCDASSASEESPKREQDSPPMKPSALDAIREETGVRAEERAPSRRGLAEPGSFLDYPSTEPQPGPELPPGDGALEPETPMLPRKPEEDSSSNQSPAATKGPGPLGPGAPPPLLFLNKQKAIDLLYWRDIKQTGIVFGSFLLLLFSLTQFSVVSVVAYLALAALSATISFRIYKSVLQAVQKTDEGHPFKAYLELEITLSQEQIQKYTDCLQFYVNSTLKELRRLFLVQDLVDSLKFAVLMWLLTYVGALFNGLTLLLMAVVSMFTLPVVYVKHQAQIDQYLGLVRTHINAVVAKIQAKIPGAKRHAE
Procedure: To explore the selectivity of IMP-2587 and IMP-2586 across the whole proteome, we performed quantitative activity-based protein profiling (ABPP) in HEK293T cells following treatment with IMP-2587 or IMP-2586 (Fig. 3a). After ABP incubation, cells were lysed, and probe-labelled proteins were ligated to biotinylated capture reagents.[27] […] USP30 was outcompeted by corresponding parent inhibitors for each ABP (Fig. 5b and d and Tables S3 and S5, ESI ^†), confirming the high potency and rapid engagement of IMP-2587 and IMP-2586 in cells. […] DESI1 and DESI2 are small ubiquitin-related modifier (SUMO) proteases,[3,29–32] and IMP-2587 and IMP-2586 may offer a starting point for future development of DESI ABPs. […]
d) Live cell probe incubation, lysate click chemistry and precipitation 6-well HEK293T cells were incubated with media containing compounds ABP 2 and ABP 4 at indicated […]
The cells were washed with PBS and lysed with lysis buffer (50 μL (1% (v/v) Triton X-100, 0.1% (w/v) sodium dodecyl sulfate (SDS), EDTA-free complete protease inhibitor cocktail (1×, Roche) in PBS on ice for 10 min. The lysates were scraped and transferred to corresponding Lo-Bind Eppendorfs. Each lysate was sonicated for 1 minute, and the samples centrifuges at 5,000 x g at 4 °C for 5 minutes to pellet insoluble cellular debris. The supernatant was collected, and protein concentration was determined using the DC Protein Assay (Bio-Rad) as per manufacturer’s instructions, and normalised to lowest concentrated sample (e.g. 1 mg/mL, using lysis buffer). The following “click mixture” was prepared separately, preparing 6 μL for every 100 μL of […]
Capture reagent (AzRB/AzT for ABP 2, YnT/YnB for ABP 4 10 mM in DMSO, 1 vol; final concentration […]
CuSO4 (50 mM in water, 2 vol; final concentration in reaction 1 mM)
TCEP (50 mM in water, 2 vol; final concentration in reaction 1 mM)
TBTA (10 mM in DMSO, 1 vol; final concentration in reaction 100 µM)
The click mixture was vortexed and incubated at room temperature for 2 min before 6 μL of the mixture was added to every 100 μL of lysate. […]

Row | SMILES | activity against UCHL1 (cross-screening) (UCHL1) | Difference (log2 fold change of enrichment) (RTN1; IMP-2587 labelling vs DMSO, 30 nM, 10 min, HEK293T (Table S2, Fig.5a)) | Difference (log2 fold change of enrichment) (RTN1; IMP-2586 labelling vs DMSO, 30 nM, 10 min, HEK293T (Table S4, Fig.5c)) | Difference (log2 fold change of enrichment) (RTN1; compound 1 out-competition with IMP-2587 labelling, HEK293T (Table S3, Fig.5b))
1 | C#Cc1cccc(-c2cc(NC(=O)CC3CCN(C#N)C3)on2)c1 (centres unmarked) [IMP-2587] | no activity | 1.77 | – | –
2 | N#CN1CC[C@@H](NC(=O)c2cc(-c3ccccc3Oc3ccc(N=[N+]=[N-])cc3)n[nH]2)C1 [IMP-2586] | no activity | – | 1.53 | –
3 | N#CN1CC[C@H](CC(=O)Nc2cc(-c3cccc(Cl)c3)no2)C1 [compound 1, reference compound] | – | – | – | -0.69
